Assays:
[1] = target: T1, STAT3 (Homo sapiens, UniProt P40763); assay: STAT3 activation inhibition assay (reporter gene assay, LNcaP stable cell line, IL-6 stimulated); type: cell-based; conditions: LNcaP stable cell line [plasmid STAT3-TA-luc], IL-6 10 ng/mL, 48 hours, luciferase activity; read-out: IC50 (μM) pSTAT3
T1 construct: endogenous in cells; host or cells: LNCaP (human prostate cancer) stably carrying pSTAT3-TA-luc reporter plasmid
Description: Cancer cell lines used for evaluating the compounds of the Examples were purchased from ATCC (American Type Culture Collection) or KCLB (Korean Cell Line Bank), and cultured according to the vendor's recommendation. The human prostate cancer cell line stably expressing the STAT3 promoter (LNcaP stable cell line [plasmid STAT3-TA-luc])—which was prepared to evaluate the inhibitory effect of the compounds of the Examples against dimerization of STAT3—was cultured in RPMI1640 (Cat no. 11875, Gibco), 10% fetal bovine serum (Cat no. SH30071.03, Hyclone) and 150 μg/mL G418 solution (Cat no. 04 727 894 001, Roche).
The reporter gene assay of LNcap stable cell line was carried out by the use of RPMI 1640 medium containing 3% DCC-FBS (without G-418). The cell line was dispensed into two (2) white 96-well plates at 30,000 cells/well/50 μL. The cell line was incubated for 24 hours under the condition of 37° C. and 5% CO2, and then the Example compounds of 50 mM DMSO stock were diluted to various concentrations and treated to two (2) white 96-well plates containing cells. Then, IL-6 was treated to a final concentration of 10 ng/mL. After the treatment of Example compounds and IL-6, the cells were cultured for 48 hours under the condition of 37° C. and 5% CO2. After 48 hours, the 96-well plates were observed under a microscope to record the presence or absence of drug precipitation and specificities, and the 96-well plates were kept at room temperature for 30 minutes. Then, in the case of the first 96-well plate, the culture medium on the plate was removed to measure the luciferase activity, and treated with passive lysis buffer at 20 µL/well and shaken for 30 minutes. The luciferase activity was measured on microLUMA LB96P (BERTHOLD) or Centro XS LB 960 (BERTHOLD) instrument using Luciferase assay system (Cat No. E1501, Promega Corporation). In the case of the second 96-well plate, 20 μL of Glo-mix solution was added to measure cytotoxicity by the compounds of the Examples, and the plate was well shaken for 10 minutes and analyzed on microLUMA LB96P (BERTHOLD) instrument using Glo-vial protocol. As a negative control, a 96 well-plate in which culture medium was added but cells were not plated was used. As a positive control, a 96 well-plate in which cells were plated and 0.1% DMSO and culture medium containing stimulation were added was used.
The results of evaluating the inhibitory effects of the compounds of the Examples against dimerization of STAT3 and STAT1 via STAT3 and STAT1 reporter gene assay are represented in Table 1.

[2] = tested on: prostate cancer cell line (LNCap); assay: Cell growth inhibition assay (Celltiter Glo); type: cell-based; conditions: Homo sapiens, LNCap cells, 120 hours incubation
Description: Cancer cell inhibitory effects by the compounds of the Examples were evaluated as follows. The prostate cancer cell line (LNCap) used was cultured under the condition according to the vendor's recommendation. LNCap was dispensed into a 96-well plate at 10,000 cells/well. After incubation under the condition of 37° C. and 5% CO2 for 24 hours, the Example compounds of 50 mM DMSO stock were diluted to various concentrations and treated to the 96-well plate containing cells. After treatment of the Example compounds, LNCap cells were incubated in an incubator (37° C., 5% CO2) for 120 hours. After each incubation time, the 96-well plate was observed under a microscope to record the presence or absence of drug precipitation and specificities, and the 96-well plate was kept at room temperature for 30 minutes. Then, after addition of 20 μL of Celltiter Glo solution, the 96-well plate was well shaken for 30 minutes. The growth inhibitory activity was measured on microLUMA LB96P (BERTHOLD) instrument using Glo-vial protocol. As a negative control, a 96 well-plate in which culture medium was added but cells were not plated was used. As a positive control, a 96 well-plate in which cells were plated and 0.1% DMSO instead of drugs was added was used. The results of growth inhibitory effects of the Example compounds on prostate cancer cell line are represented in Table 2.

T1 sequence (P40763 whole entry): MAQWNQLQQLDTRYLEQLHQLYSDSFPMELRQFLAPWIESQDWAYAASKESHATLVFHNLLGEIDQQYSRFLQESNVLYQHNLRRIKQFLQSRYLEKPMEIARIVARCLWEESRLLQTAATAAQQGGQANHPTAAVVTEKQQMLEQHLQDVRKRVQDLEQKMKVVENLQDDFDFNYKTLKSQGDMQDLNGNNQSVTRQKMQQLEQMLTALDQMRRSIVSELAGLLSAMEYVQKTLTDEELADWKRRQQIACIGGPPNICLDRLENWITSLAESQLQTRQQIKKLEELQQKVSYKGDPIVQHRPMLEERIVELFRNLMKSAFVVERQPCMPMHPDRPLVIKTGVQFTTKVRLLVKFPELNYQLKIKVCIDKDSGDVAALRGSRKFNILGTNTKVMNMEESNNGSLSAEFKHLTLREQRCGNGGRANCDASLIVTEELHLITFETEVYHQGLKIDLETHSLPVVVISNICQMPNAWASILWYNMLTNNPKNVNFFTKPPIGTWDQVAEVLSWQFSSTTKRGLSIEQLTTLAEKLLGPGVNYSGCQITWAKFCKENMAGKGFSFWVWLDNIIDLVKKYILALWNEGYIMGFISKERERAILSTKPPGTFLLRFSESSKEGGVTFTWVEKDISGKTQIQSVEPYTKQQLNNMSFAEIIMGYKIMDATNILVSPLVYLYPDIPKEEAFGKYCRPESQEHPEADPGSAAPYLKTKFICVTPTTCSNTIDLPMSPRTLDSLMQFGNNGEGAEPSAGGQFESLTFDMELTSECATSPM

SMILES	IC50 [1] [µM]	IC50 [2] [µM]
CS(=O)(=O)Nc1ccc(CCNc2cc(Cl)nc3ccc(-c4ccc(Cl)cc4Cl)cc23)cc1 [Example 57, N-(4-(2-((2-chloro-6-(2,4-dichlorophenyl)quinolin-4-yl)amino)ethyl)phenyl)methanesulfonamide]	17.9	8.6
Nc1ccc(CCNc2cc(Cl)nc3ccccc23)cc1 [Example 6, N-(4-aminophenethyl)-2-chloroquinolin-4-amine]	0.71	0.69
Cc1cc(NCCc2ccc([N+](=O)[O-])cc2)c2ccccc2n1 [Example 5, 2-methyl-N-(4-nitrophenethyl)quinolin-4-amine]	38.1	47.3
CS(=O)(=O)Nc1ccc(CCNc2cc(Cl)nc3cc(OC(F)(F)F)ccc23)cc1 [Example 24, N-(4-(2-((2-chloro-7-(trifluoromethoxy)quinolin-4-yl)amino)ethyl)phenyl)methanesulfonamide]	4.1	6.2
CS(=O)(=O)Nc1ccc(CCNc2nccc3ccccc23)cc1 [Example 75, N-(4-(2-(isoquinolin-1-ylamino)ethyl)phenyl)methanesulfonamide]	4.3	6
O=C(c1ccccc1)c1ccc2nc(Cl)cc(NCCc3ccc([N+](=O)[O-])cc3)c2c1 [Example 34, (2-chloro-4-((4-nitrophenethyl)amino)quinolin-6-yl)(phenyl)methanone]	6.9	15.7
CS(=O)(=O)Nc1ccc(CCNc2cc(Cl)nc3ccccc23)cc1 [Example 7, N-(4-(2-((2-chloroquinolin-4-yl)amino)ethyl)phenyl)methanesulfonamide]	0.038	0.078
CCOC(=O)COc1ccc2nc(Cl)cc(NCCc3ccc([N+](=O)[O-])cc3)c2c1 [Example 37, ethyl 2-((2-chloro-4-((4-nitrophenethyl)amino)quinolin-6-yl)oxy)acetate]	20.3	10.6
CS(=O)(=O)Nc1ccc(CCNc2ncnc3ccc(F)cc23)cc1 [Example 64, N-(4-(2-((6-fluoroquinazolin-4-yl)amino)ethyl)phenyl)methanesulfonamide]	0.063	0.23
CS(=O)(=O)Nc1ccc(CCNc2ccnc3cc(OC(F)(F)F)ccc23)cc1 [Example 25, N-(4-(2-((7-(trifluoromethoxy)quinolin-4-yl)amino)ethyl)phenyl)methanesulfonamide]	1.9	9.6
CCc1cccc2c(NCCc3ccc([N+](=O)[O-])cc3)cc(Cl)nc12 [Example 8, 2-chloro-8-ethyl-N-(4-nitrophenethyl)quinolin-4-amine]	7.8	16
O=C(c1ccc2nc(Cl)cc(NCCc3ccc([N+](=O)[O-])cc3)c2c1)N1CCOCC1 [Example 42, (2-chloro-4-((4-nitrophenethyl)amino)quinolin-6-yl)(morpholino)methanone]	> 50	> 50
CS(=O)(=O)Nc1ccc(CCNc2cc(Cl)nc3c(F)cccc23)cc1 [Example 45, N-(4-(2-((2-chloro-8-fluoroquinolin-4-yl)amino)ethyl)phenyl)methanesulfonamide]	13.1	13.1
O=[N+]([O-])c1ccc(CCNc2cc(Cl)nc3ccc(O)cc23)cc1 [Example 35, 2-chloro-4-((4-nitrophenethyl)amino)quinolin-6-ol]	2.3	7.3
O=[N+]([O-])c1ccc(CCNc2ncnc3ccccc23)cc1 [Example 36, N-(4-nitrophenethyl)quinazolin-4-amine]	0.023	0.093
O=[N+]([O-])c1ccc(CCNc2cc(Cl)nc3ccc(S(=O)(=O)NCCc4ccc([N+](=O)[O-])cc4)cc23)cc1 [Example 19, 2-chloro-N-(4-nitrophenethyl)-4-((4-nitrophenethyl)amino)quinolin-6-sulfonamide]	> 50	18.4

SMILES	IC50 [1] [µM]	IC50 [2] [µM]
O=Nc1ccc(CCNc2cc(Cl)nc3ccccc23)cc1 [Example 20, 2-chloro-N-(4-nitrosophenethyl)quinolin-4-amine]	0.75	0.74
CS(=O)(=O)Nc1ccc(CCNc2cc(Cl)nc3ccc(F)cc23)cc1 [Example 22, N-(4-(2-((2-chloro-6-fluoroquinolin-4-yl)amino)ethyl)phenyl)methanesulfonamide]	0.1	0.074
O=[N+]([O-])c1ccc(CCNc2cc(C(F)(F)F)nc3ccccc23)cc1 [Example 49, N-(4-nitrophenethyl)-2-(trifluoromethyl)quinolin-4-amine]	5.6	14.1
O=[N+]([O-])c1ccc(CCNc2cc(Cl)nc3cc(OC(F)(F)F)ccc23)cc1 [Example 12, 2-chloro-N-(4-nitrophenethyl)-7-(trifluoromethoxy)quinolin-4-amine]	5.8	9.3
NNC(=O)c1ccc2nc(Cl)cc(NCCc3ccc([N+](=O)[O-])cc3)c2c1 [Example 44, 2-chloro-4-((4-nitrophenethyl)amino)quinolin-6-carbohydrazide]	> 50	> 50
O=[N+]([O-])c1ccc(CCNc2ncnc3ccc(-c4ccc(Cl)cc4Cl)cc23)cc1 [Example 54, 6-(2,4-dichlorophenyl)-N-(4-nitrophenethyl)quinazolin-4-amine]	11	14.1
COc1cccc2c(NCCc3ccc([N+](=O)[O-])cc3)cc(Cl)nc12 [Example 10, 2-chloro-8-methoxy-N-(4-nitrophenethyl)quinolin-4-amine]	3.9	2.6
O=[N+]([O-])c1ccc(CCNc2nc(F)nc3[nH]cnc23)cc1 [Example 50, 2-fluoro-N-(4-nitrophenethyl)-9H-purin-6-amine]	13.9	23.1
NS(=O)(=O)c1ccc(CCNc2cc(Cl)nc3ccccc23)cc1 [Example 3, 4-(2-((2-chloroquinolin-4-yl)amino)ethyl)benzenesulfonamide]	10.5	5.1
O=[N+]([O-])c1ccc(CCNc2cc(Cl)nc3ccc(N4CCOCC4)cc23)cc1 [Example 28, 2-chloro-6-morpholino-N-(4-nitrophenethyl)quinolin-4-amine 2,2,2-trifluoroacetate]	32.3	44.1
O=[N+]([O-])c1ccc(CCNc2nc(Cl)nc3[nH]cnc23)cc1 [Example 47, 2-chloro-N-(4-nitrophenethyl)-9H-purin-6-amine]	> 50	> 50
CS(=O)(=O)Nc1ccc(CCNc2nc(Cl)nc3ccccc23)cc1 [Example 23, N-(4-(2-((2-chloroquinazolin-4-yl)amino)ethyl)phenyl)methanesulfonamide]	0.26	0.25
CS(=O)(=O)Nc1ccc(CCNc2ncnc3sccc23)cc1 [Example 68, N-(4-(2-(thieno[2,3-d]pyrimidin-4-ylamino)ethyl)phenyl)methanesulfonamide]	0.076	0.27
CS(=O)(=O)Nc1ccc(CCNc2ncnc3ccsc23)cc1 [Example 66, N-(4-(2-(thieno[3,2-d]pyrimidin-4-ylamino)ethyl)phenyl)methanesulfonamide]	0.74	0.71
Cc1cnc2ccccc2c1NCCc1ccc(NS(C)(=O)=O)cc1 [Example 72, N-(4-(2-((3-methylquinolin-4-yl)amino)ethyl)phenyl)methanesulfonamide]	0.62	1.4
